# Data taken from patent publication US11638427B2, “Methods and compositions for altering secondary metabolites in plants” (Impello Biosciences, Inc, priority 2020, dated 2023).
# Legend:
# Nectria pseudotrichia = test: Mold growth on jasmonate-infused plates, mold 2 isolated from avocado; assay type: cell-based; conditions: various concentrations in plates
# Protocol: (§1) MDJ (TCI, CAS No.: 24851-98-7) and CJ were infused into potato dextrose agar (PDA, VWR Cat No.: 90003-494) petri dishes (100×15 mm VWR, Cat No: 25384-094) at concentrations ranging from 1 mM, 4.25 mM, and 10 mM. Each treatment was prepared using a technical grade stock solution of pure chemical (CJ or MDJ) diluted with TWEEN®-20 (VWR, CAS No.: […]). Culturable oyster mushroom and seedling mold served to create fungal mycelial plugs using a sterile 1 mL pipette tip (Eppendorf, Cat No.: 022491458) held upside down. The tips were used to make circle excisions (i.e., fungal plugs) from a mycelial mat grown on PDA with no biochemical infusions. Fungal pugs were then transferred to PDA infused with varying concentrations of CJ or MDJ, and control plates (no CJ or MDJ infusion) to monitor fungal growth at room temperature over time.
# (§2) Based on the above results in Cannabis spp., additional fungi from various crops was sampled and tested. Plates comprising various concentrations of MDJ or MJ were prepared as described above.
# [1] = system: Colletotrichum gloeosporioides; test: Mold growth on jasmonate-infused plates, mold 1 isolated from avocado; assay type: cell-based; conditions: various concentrations in plates
# Protocol: as §1, §2
# pineapples = test: Fruit MDJ spray till drip, 2 weeks observation; assay type: in vivo
# Protocol: For fruit MDJ dips, all fruits were purchased from a local market as certified organic on 4/13/2021. Before any treatments, all fruits were submerged in boiling water to melt off any non-natural waxy coating then dried with a washcloth. Once fruits were clean and dry, they were submerged in varying concentrations of methyl dihydrojasmonate solutions. Each solution was prepared from a 1M MDJ Tween 20 stock solution diluted with RO water. 500 ml of each solution was prepared and reused for the different fruits. Each fruit was submerged for 20 seconds and then left to dry on a paper towel. After the fruits were dry the paper towels were removed and fruits left on the lab bench at room temperature grouped by treatment but not touching and monitored for visual differences for 2 weeks. The pineapple was the only fruit that was not fully submerged but instead sprayed till drip with the varying concentration of MDJ/Tween 20 solution. Then left to dry and monitored the same as the other fruits.
# Treatments and Sample Sizes:
# Control, water—4 lemons, 2 oranges, 1 pineapple, 1 mango, 4 strawberries, 2 grapes (˜10 grapes/bundle), 2 oranges, 4 avocados […]
# Qualitative observations like color changes, firmness, mold appearance were monitored and at the end of the two weeks all fruits were cut in half to record and further observations. Penetrometer readings were recorded in the last week of observations.
# oyster mushroom = test: Fungal plug growth on jasmonate-infused PDA plates; assay type: cell-based; conditions: all concentrations (1 mM, 4.25 mM, 10 mM) in PDA; 72 hours and 10 days
# Protocol: as §1
# [2] = system: marijuana variety Lemon Creamsicle; test: Foliar spray of CJ or MDJ on high-THC marijuana in greenhouse, cannabinoid analysis; assay type: in vivo, Cannabis spp.; conditions: 7.5 mM foliar spray every 14 days, four treatments
# Protocol: Applicant's previous experiments investigated the effects of jasmonate-type elicitors MeJA, MDJ, and CJ on hemp (high fiber) and high-CBD, (low-THC) varieties of Cannabis. […] Here, the effects of MDJ and CJ application on a high-THC variety in a controlled environment was investigated. High-THC, low-CBD marijuana variety “Lemon Creamsicle” (LC), was grown in a greenhouse setting. LC was used as a plant model due to its historically consistent metabolite profile in the greenhouse environment, making it a stable, known, and reliable variety.
# A four-block plant trial was implemented with a population of N=12 plants and treatment group sizes of n=4. The treatment and control groups were defined as follows: Control=water+0.1% TWEEN®-20 aqueous foliar spray, Treatment 1=[7.5 mM] CJ+0.1% TWEEN®-20 aqueous foliar spray, Treatment 2=[7.5 mM] MDJ+0.1% TWEEN®-20 aqueous foliar spray. A standardized concentration of [7.5 mM] for both CJ and MDJ applications was chosen due to its performance in Applicant's past research. All treatment solutions were prepared the day of the application in equal volumes from pre-measured quantities of the stock materials to ensure consistency, i.e., appropriate volumes of CJ or MDJ were combined with appropriate volumes of TWEEN®-20 for each experimental treatment, stored in a sealed centrifuge tube, and diluted in the appropriate amount of water immediately prior to application. Separate sprayers were used for each treatment and control sprays to avoid cross-contamination.
# All plants in the trial were produced as asexual clone stock taken from the same mother plant at the same time to ensure homogeneity. All plants were rooted and grown in accordance with the production practices typical to this greenhouse operator prior to plant selection for the experiment. Due to the layout of the cultivation system, which features immovable hydroponic “pots” that house the plant throughout the entire flowering (i.e., reproductive) phase, all plants included in the experiment were selected from a set section of the greenhouse after final transplant into the hydroponic system and grouped in a complete randomized block design accordingly.
# After defining the plants to include in the experiment, which were organized in two (2) rows of six (6) plants side-by-side in the hydroponic system, the experimental blocks were defined as groups of three plants, and a research randomizer tool (randomizer.org) was used to generate a randomized arrangement of plants in each group. Using a blocked design in this setting helped account for the immovable nature of the plants and the slight, if any, environmental differences (like natural sunlight, shading from other plants, and corner/edge effect) that existed in the small experimental area. Blocking the experimental arrangement also allowed for improved statistical analysis and resolution considering the small sample size and close proximity of the experimental plants.
# After labelling each plant in the experiment with the appropriate group label (Control, T1 [CJ], or T2 [MDJ]), the plants were allowed to grow normally between treatment applications, which were performed every 14 days for a total of four (4) treatments throughout the flowering cycle, which lasted approximately eight (8) weeks. The first treatment occurred seven (7) days after the onset of the flowering cycle, which was dictated by day-length control. Care was taken with each treatment application to minimize overspray onto non-target neighboring plants, and physical barriers were temporarily installed between plants during treatment sprays to aid in this effort. These barriers were removed following treatment sprays when the foliage was no longer visibly wet from the treatment and/or control foliar sprays. […]
smiles,measurement,setting,value
"CCCCCC1C(=O)CCC1CC(=O)OC (stereo not drawn) [MDJ, methyl dihydrojasmonate]",growth of mold isolated from avocado (mold 2),Nectria pseudotrichia,effective at preventing the growth
same,growth of mold isolated from avocado (mold 1),[1],effective at preventing the growth
same,crown appearance,"pineapples; spray till drip 20 mM, control had the greenest crown, followed by 5 mM",most dried out crown
same,mold at the base of the pineapple,"pineapples; spray till drip, control, 5 mM and 20 mM groups, one pineapple per group",showed some mold
same,Oyster mushroom fungal growth compared to control,oyster mushroom,showed inhibition
same,CBGA average relative percent increase compared to the Control group,[2],15.91%
same,THCA average relative percent increase compared to the Control group,[2],6.88%
same,Total Cannabinoids average relative percent increase compared to the Control group,[2],6.06%
same,Total THC average relative percent increase compared to the Control group,[2],5.92%
